# What was measured:
# rUGT2B7 = target: T1, rUGT2B7 (Homo sapiens, UniProt P16662); assay: Inhibition of CBG glucuronidation by Compound 1; format: biochemical; details: for CBG detected, Percent of control / CBG glucuronide formed, Percent of control: rUGT2B7; for CBG detected / CBG glucuronide formed: rUGT2B7, 5 min
# T1 sequence (P16662 24-529): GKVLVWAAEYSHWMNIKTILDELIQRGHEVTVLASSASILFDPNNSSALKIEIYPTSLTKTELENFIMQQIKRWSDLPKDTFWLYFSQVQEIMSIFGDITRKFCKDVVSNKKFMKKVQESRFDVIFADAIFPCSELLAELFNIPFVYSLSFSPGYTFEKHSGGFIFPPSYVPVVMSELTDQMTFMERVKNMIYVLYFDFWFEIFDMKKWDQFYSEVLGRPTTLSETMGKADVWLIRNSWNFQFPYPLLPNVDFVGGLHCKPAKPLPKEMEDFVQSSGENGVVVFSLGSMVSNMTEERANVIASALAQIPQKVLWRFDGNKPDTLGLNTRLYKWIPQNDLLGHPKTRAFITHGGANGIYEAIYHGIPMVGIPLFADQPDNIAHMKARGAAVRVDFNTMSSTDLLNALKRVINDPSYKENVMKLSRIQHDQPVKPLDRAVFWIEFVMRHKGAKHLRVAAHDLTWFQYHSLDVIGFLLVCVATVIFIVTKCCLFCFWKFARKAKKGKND
# Method: The purpose of this experiment was to determine if Compound 1 can inhibit the glucuronidation of CBG, as both are substrates for the two major isoforms responsible for CBG glucuronidation.
# The ability of Compound 1 to inhibit the metabolism of CBG by UGT1A9 and UGT2B7 enzymes was investigated to ascertain the ICso values for direct inhibition. The incubation conditions (substrate concentration, incubation time and protein concentration) were determined in Part 2 of the protocol such that CBG metabolism remains near initial rate conditions (e.g., 20-30% substrate loss).
# Preliminary experiments were conducted in Part I of the protocol, first to establish the HPLC/MS/MS bioanalytical methods for CBG and CBG glucuronide. […] The second set of preliminary experiments (Part 2), as mentioned, were conducted to optimize the incubation conditions as described above. Incubations (at 37 C) contained Tris-HCl buffer (100 mM, pH 7.7), MgCl2 (10 mM), EDTA (1 mM, pH 7.4) and UDP-glucuronic acid (UDPGA, 10 mM). CBG was added to each incubation in DMSO such that the final percent of DMSO was 1% v/v, or less. Reactions were terminated by the addition of an equal volume of stop reagent, acetonitrile containing an internal standard. The samples were centrifuged (e.g., 920 RCF for 10 minutes at 10° C.), and the supernatant fractions were analyzed by LC-MS/MS to determine the amount of CBG remaining and formation of one metabolite (CBG glucuronide).
# To examine its ability to act as a direct inhibitor of the above listed enzymes, Compound 1 was be added to recombinant human UGT enzyme together with CBG. Reactions were initiated with UDPGA and were carried out in duplicate. For all assays, reactions were terminated by the addition of acetonitrile with or without 2% v/v formic acid, including the internal standard.
# Authentic metabolite reference standards were used for quantitation of the probe substrate metabolites and as internal standards. Based on the information obtained in the Part 2 experiments, the following table summarizes the experiments performed, assessing the inhibitory effects of Compound 1 was conducted as follows:
# The amounts of CBG present at the end of the incubation periods was determined. For inhibition to have occurred, the amounts of CBG present at the end of the incubation period needed to increase, and the amounts of glucuronide formed needed to decrease.
# [1] = system: cryopreserved hepatocytes; assay: Hepatocyte stability and metabolite profiling; format: in vitro ADME, dog; details: dog hepatocyte samples
# Method: (§1) The objective of this study was to investigate the stability of the test compound, CBG, in human, rat, dog, mouse, monkey and minipig cryopreserved hepatocytes. Follow-on metabolite profiling was performed.
# (§2) CBG was incubated up to 2 hr with cryopreserved hepatocytes. Cryopreserved hepatocytes in suspension were added to test compound in supplemented media following pre-incubation to initiate the reaction and the reactions were stopped by organic solvent at the appropriate time points. The termination plates were centrifuged and sample supernatants were analysed using Cyprotex generic LC MS/MS conditions to generate intrinsic clearance values for CBG. Two control compounds for each species were included in the assay and if the values for these compounds were not within the specified limits the results were rejected and the experiment repeated.
# (§3) Following the hepatocyte stability assay the samples were 59tilized for metabolite profiling using suitable high-resolution LC-MS/MS conditions. The 40 and 60 minute human samples, 20 and 120 minute rat samples, 10 and 20 minute dog and monkey samples, 20 and 60 minute mouse samples, and 40 and 120 minute minipig samples were compared against the 0 minute control sample to establish which and how many metabolites were formed. […] No further analysis was carried out with the mouse species.
# (§4) The areas and percentages reported for the parent and metabolites were calculated using the XIC data. Metabolite observed at greater than 1% of the total of drug related material are reported. […] For accuracy, a ppm error of less than 5 is desirable; when the response for a metabolite observed is low the ppm error maybe greater than 5. Where a metabolite has been referred to as a potential oxidation it can refer to a potential hydroxylation, epoxidation or oxide formation. Representative collision induced dissociation (CID) mass spectra were obtained for the metabolites found.
# [2] = Hepatocyte stability and metabolite profiling; format: in vitro ADME, dog; details: cryopreserved hepatocytes in suspension; Dog cryopreserved hepatocytes
# Method: as §1, §2, §3, §4
compound,measurement,setting,value
"CCCCCc1cc(O)c(C/C=C(\C)CCC=C(C)C)c(OC)c1 [Compound 1, (E)-2-(3,7-dimethylocta-2,6-dien-1-yl)-3-methoxy-5-pentylphenol]","CBG detected, Percent of control",rUGT2B7; 10 μM CBG + 0.01 μM Compound 1,103% of control
same,"CBG glucuronide formed, Percent of control",rUGT2B7; 10 μM CBG + 0.01 μM Compound 1,104% of control
same,CBG detected,rUGT2B7; 10 μM CBG + 0.01 μM Compound 1,1370 pmol
same,CBG glucuronide formed,rUGT2B7; 10 μM CBG + 0.01 μM Compound 1,260000 area ratio
same,"CBG detected, Percent of control",rUGT2B7; 10 μM CBG + 0.03 μM Compound 1,109% of control
same,"CBG glucuronide formed, Percent of control",rUGT2B7; 10 μM CBG + 0.03 μM Compound 1,101% of control
same,CBG detected,rUGT2B7; 10 μM CBG + 0.03 μM Compound 1,1460 pmol
same,CBG glucuronide formed,rUGT2B7; 10 μM CBG + 0.03 μM Compound 1,252000 area ratio
same,"CBG detected, Percent of control",rUGT2B7; 10 μM CBG + 0.1 μM Compound 1,106% of control
same,"CBG glucuronide formed, Percent of control",rUGT2B7; 10 μM CBG + 0.1 μM Compound 1,103% of control
same,CBG detected,rUGT2B7; 10 μM CBG + 0.1 μM Compound 1,1410 pmol
same,CBG glucuronide formed,rUGT2B7; 10 μM CBG + 0.1 μM Compound 1,257000 area ratio
same,"CBG detected, Percent of control",rUGT2B7; 10 μM CBG + 0.3 μM Compound 1,109% of control
same,"CBG glucuronide formed, Percent of control",rUGT2B7; 10 μM CBG + 0.3 μM Compound 1,105% of control
same,CBG detected,rUGT2B7; 10 μM CBG + 0.3 μM Compound 1,1450 pmol
same,CBG glucuronide formed,rUGT2B7; 10 μM CBG + 0.3 μM Compound 1,262000 area ratio
same,"CBG detected, Percent of control",rUGT2B7; 10 μM CBG + 1 μM Compound 1,109% of control
same,"CBG glucuronide formed, Percent of control",rUGT2B7; 10 μM CBG + 1 μM Compound 1,102% of control
same,CBG detected,rUGT2B7; 10 μM CBG + 1 μM Compound 1,1460 pmol
same,CBG glucuronide formed,rUGT2B7; 10 μM CBG + 1 μM Compound 1,253000 area ratio
same,"CBG detected, Percent of control",rUGT2B7; 10 μM CBG + 3 μM Compound 1,108% of control
same,"CBG glucuronide formed, Percent of control",rUGT2B7; 10 μM CBG + 3 μM Compound 1,101% of control
same,CBG detected,rUGT2B7; 10 μM CBG + 3 μM Compound 1,1440 pmol
same,CBG glucuronide formed,rUGT2B7; 10 μM CBG + 3 μM Compound 1,252000 area ratio
same,"CBG detected, Percent of control",rUGT2B7; 10 μM CBG + 10 μM Compound 1,111% of control
same,"CBG glucuronide formed, Percent of control",rUGT2B7; 10 μM CBG + 10 μM Compound 1,96.0% of control
same,CBG detected,rUGT2B7; 10 μM CBG + 10 μM Compound 1,1470 pmol
same,CBG glucuronide formed,rUGT2B7; 10 μM CBG + 10 μM Compound 1,239000 area ratio
same,inhibition of the conversion of CBG to a glucuronide (in words),"rUGT2B7; UGT2B7, 0.01-10 μM Compound 1",not an effective inhibitor
"CCCCCc1cc(O)c(C/C=C(\C)CCC=C(C)C)c(O)c1 [CBG, cannabigerol]",number of metabolites observed,[1],three
same,half-life,[2],52.7 min
same,hepatocyte CLint,[2],26.3 µL/min/1e6 cells

# Reference: patent publication US11992497B2 (priority 2021, dated 2024)
